Experimental data taken from patent US20200397332A1, “NON-INVASIVE METHOD AND DEVICE FOR DETERMINING DRUG CONCENTRATIONS IN BLOOD” (priority 2019, published 2020).

Experiments:
[1] = clinical; conditions: human, in vivo, po
Protocol: The Tmax can be identified from this dependence.
FIG. 11 is illustrative of the relative change in charge of the ions inside the arterial blood stream vs time after ingesting 500 mg of acetaminophen. […] The Tmax can be identified from this graph, and is detected as being approximately 30 min.
The initial dosage is Din is ˜500 mg of acetaminophen. The maximum drug concentration in arterial blood stream is 60 mg/L at Din=500 mg ([…]) and Tmax˜30 min from the measurements from the GM sensor.
Vs. The next step is to calculate (Vs0−Vs)0.

[2] = Din=500 mg acetaminophen; taken from known drug data; cited from earlier work
[3] = caffeine: one cup of coffee (100 mg caffeine); alcohol: no sign of alcohol in blood; cited from earlier work
[4] = Din=50 mg caffeine; taken from known drug data; cited from earlier work
[5] = clinical; conditions: human, in vivo, po; remark: listed apart in the source
Text: FIG. 6 is illustrative of the GM magnetic signal vs time at different pressures by adjusting the pressure applied by the pressure cuff 12 on the arm of the patient. Initially, the cuff pressure is zero and the GM signal is flat. After around 10 seconds, the cuff pressure is increased and after 20 seconds, the cuff pressure reaches approximately 120 mm Hg. […] The GM signal is almost flat from 20 seconds to 60 seconds because the flow of blood through the blood vessel is stopped. When the cuff pressure was released quickly at about 60 seconds, the GM signal returned to the level similar to the initial measurement. […] At the pressure of 120 mm Hg or greater there is, no arterial blood flow and no electrical current. The difference of two levels in the beginning and around 60 seconds gives the absolute value of the magnetic field which is detected by the GM sensor. […]
Basic data for the detected drugs includes the initial dosages of the drug Din which depend on the maximum concentration Cmax in blood at a certain time Tmax. […] The absolute value of the drug concentration is determined based on the measured signal Vs and time Tmax at which the concentration of drug is detected at a maximum value in the blood stream.
The signal Vs was measured at different times after ingestion of the caffeine to verify the time dependence of the drug concentration in blood. […]

| Compound | Tmax [1] [min] | Cmax, maximum drug concentration in arterial blood stream [2] [mg/L] | time after which the level in blood has declined to zero [3] | Cmax, maximum drug concentration in the arterial blood stream [4] | Tmax [5] [h] |
| --- | --- | --- | --- | --- | --- |
| CC(=O)Nc1ccc(O)cc1 [acetaminophen] | ~30 | 60 | – | – | – |
| CCO [alcohol] | – | – | about 12 hours | – | – |
| Cn1c(=O)c2c(ncn2C)n(C)c1=O [caffeine] | – | – | about 4 hours | about 1 mg/L | ~2 |
